US20100324102A1, “N-(3-PYRIDIN-2-YLPROPYL) BENZAMIDE DERIVATIVES AS FUNGICIDES” (BAYER CROPSCIENCE AG, priority 2006, published 2010)

Assays:
Alternaria brassicae = assay: In vivo test on Alternaria brassicae (leaf spot of crucifers); details: radish plants (Pernot variety), preventive spray at 330 ppm, contamination after 24 hours, grading 6 to 7 days after contamination vs control plants
Protocol: (§1) The active ingredients tested are prepared by potter homogenisation in a mixture of acetone/tween/water. This suspension is then diluted with water to obtain the desired active material concentration.
Radish plants (Pernot variety), sown on a 50/50 peat soil-pozzolana substrate in starter cups and grown at 18-20° C., are treated at the cotyledon stage by spraying with the active ingredient prepared as described above.
Plants, used as controls, are treated with the mixture of acetone/tween/water not containing the active material.
After 24 hours, the plants are contaminated by spraying them with an aqueous suspension of Alternaria brassicae spores (40,000 spores per cm^3). The spores are collected from a 12 to 13 days-old culture.
The contaminated radish plants are incubated for 6-7 days at about 18° C., under a humid atmosphere.
Grading is carried out 6 to 7 days after the contamination, in comparison with the control plants.

Pyrenophora teres = assay: In vivo test on Pyrenophora teres (barley net blotch); details: barley plants (Express variety), preventive spray at 330 ppm, contamination after 24 hours, grading 12 days after contamination vs control plants
Protocol: as §1
Barley plants (Express variety), sown on a 50/50 peat soil-pozzolana substrate in starter cups and grown at 12° C., are treated at the 1-leaf stage (10 cm tall) by spraying with the active ingredient prepared as described above. Plants, used as controls, are treated with the mixture of acetone/tween/water not containing the active material.
After 24 hours, the plants are contaminated by spraying them with an aqueous suspension of Pyrenophora teres spores (12,000 spores per ml). The spores are collected from a 12-day-old culture. The contaminated barley plants are incubated for 24 hours at about 20° C. and at 100% relative humidity, and then for 12 days at 80% relative humidity.
Grading is carried out 12 days after the contamination, in comparison with the control plants.

`O=C(NCCCc1ncc(C(F)(F)F)cc1Cl)c1ccccc1C(F)(F)F` [Compound 1, N-{3-[3-chloro-5-(trifluoromethyl)pyridin-2-yl]propyl}-2-(trifluoromethyl)benzamide] was tested, and the protection (Alternaria brassicae) was “at least 70%” and the protection (Pyrenophora teres) was “at least 70%”.
